Reference: patent US4594238A (Regents of University of Minnesota, priority 1984, dated 1986)

Key:
[1] = polar solvents; cited from earlier work
[2] = Protection of rats against DDP toxicity by disulfiram via stomach tube, Example 1; format: in vivo, Male F344 (Fischer) rats; conditions: disulfiram 2 g/kg via stomach tube 30 minutes before and 30 minutes after DDP
Procedure: Male F344 (Fischer) rats (average weight, 150 g) were obtained from the Charles River Breeding Laboratory. They were divided into groups of four rats, placed in methacrylate cages, and given National Institute of Health chow for rodents and water ad lib, for 7 days. Average weight of the rats was 180 g (range, 160-200 g) when injected.
Tetraethylthiuram disulfide (disulfiram) was obtained from Sigma Chemical Co., St. Louis MO. Sodium DDTC was prepared according to the procedure of Klopper and van der Kerk, Rec. Trav. Chim. 70:917 (1951); immediately prior to injection, it was dissolved in sterile water at a concentration of 100 mg/ml. Sodium bicarbonate was prepared in sterile water at a concentration of 50 mg/ml. All injections were carried out under brief ether anesthesia.
Otherwise, weight and BUN were determined at 5 days after injection, reportedly the time of maximal observed toxicity. Evidence of gastrointestinal toxicity was obtained qualitatively by noting the presence or absence of diarrhea 3-5 days after injection.
Disulfiram was administered to two groups of rats in lieu of NaDDTC, as described subsequently.

[3] = cited from earlier work; for Bone marrow toxicity: in vivo
[4] = Urinary excretion of free and conjugated DDTC; format: in vivo, rats; conditions: combination of DDTC and acetazolamide, even when NaDDTC dose reduced by 80%
Description: Intravenous administration was explored in an attempt to deliver larger quantities of free DDTC anion to the likely site of toxicity in the renal tubule; urinary excretion of DDTC was monitored as a means of estimating changes in tubular levels of free DDTC. The standard assay for DDTC anion utilizes a spectrophotometric determination following reaction with cupric ion to form the colored Cu(DDTC)2 complex. Unfortunately, the affinity of cupric ion for sulfur ligands is such that this metal ion will catalyze the decomposition of the DDTC glucuronide and therefore will not discriminate between free and conjugated DDTC. Ferric ion does react selectively with the free ligand, thereby providing a convenient assay for both free and total DDTC in urine.
Excretion of free and conjugated NaDDTC in the urine of rats was measured as follows. NaDDTC was administered in selected doses via intraperitoneal or intravenous injection. Rats were then placed in metabolic cages and urine was collected and analyzed at 30 minute intervals. Urine samples (0.1-5.0 ml) were added to 2 ml of a solution containing ferric nitrate (20 mM) and sodium citrate (200 mM). The dark Fe (DDTC)3 complex was extracted into chloroform (4 ml) by vortexing for 5 minutes. The mixture was chilled, centrifuged for 1 minute, and the chloroform layer separated. To this chloroform solution was added saturated aqueous cupric sulfate (2 ml), and the mixture was vortexed for 5 minutes, chilled, and centrifuged for 1 minute. The chloroform solution was separated and the Cu(DDTC)2absorbance measured at 435 nm. Free DDTC was determined by comparison of absorbance to a standard curve. Total DDTC was determined by addition of 0. 05-1.0 ml of urine to 3 ml of saturated cupric sulfate followed by incubation at 45° for 30 minutes. The resulting Cu(DDTC)2 complex was extracted into chloroform and analyzed as described above. DDTC-glucuronide excretion was determined by subtraction of free from total DDTC.

[5] = cited from earlier work; for Benefit when given before platinum(II): given before the platinum (II); for Binding to plasma platinum: in vivo

Compound: CCN(CC)C(=S)SSC(=S)N(CC)CC [disulfiram, Tetraethylthiuram disulfide]
- Solubility in polar solvents [1]: relatively low solubility, particularly in polar solvents
- BUN in survivors [2]: 55 to 180 mg/dL
- Necropsy, intestine [2]: grossly hemorrhagic fluid-filled intestine
- Weight loss and BUN levels in the survivors [2]: highly variable
- Animals that died before day 5 ([2]; in each group): Fifty

Compound: chlorohydroxy-isopropylamineplatinum [CHIP]
- Kidney toxicity ([3]; compared to first generation agents): low in kidney toxicity
- Bone marrow toxicity [3]: high in bone marrow toxicity

Compound: CC(=O)Nc1nnc(S(N)(=O)=O)s1 [acetazolamide, reference compound]
- Renal excretion of DDTC with acetazolamide [4]: significant increases in renal excretion of DDTC

Compound: N.N.O=C([O-])C1(C(=O)[O-])CCC1.[Pt+2] [CBDCA]
- Bone marrow toxicity [3]: increased bone marrow toxicity

Compound: CC(C)(S)[C@@H](N)C(=O)O [penicillamine]
- Benefit when given before platinum(II) [5]: Some benefit was reported
- Binding to plasma platinum [5]: may have the potential to bind to plasma platinum

Compound: NCC1(CN)CCCCC1.O=S(=O)([O-])[O-].[Pt+2] [TNO-6]
- Bone marrow toxicity [3]: increased bone marrow toxicity

Compound: N[C@@H](CS)C(=O)O [cysteine]
- Benefit when given before platinum(II) [5]: Some benefit was reported
- Binding to plasma platinum [5]: may have the potential to bind to plasma platinum
